Several values for one entry are separate records, joined by “and”; a condition that tells them apart may be missing. Equal values may be shown once.
Target: T1, particulate guanylyl cyclase receptor A (pGC-A) (Homo sapiens, UniProt P16066)
T1 construct: expressed in transfected cells; host or cells: HEK293
T1 sequence (P16066 33-1061): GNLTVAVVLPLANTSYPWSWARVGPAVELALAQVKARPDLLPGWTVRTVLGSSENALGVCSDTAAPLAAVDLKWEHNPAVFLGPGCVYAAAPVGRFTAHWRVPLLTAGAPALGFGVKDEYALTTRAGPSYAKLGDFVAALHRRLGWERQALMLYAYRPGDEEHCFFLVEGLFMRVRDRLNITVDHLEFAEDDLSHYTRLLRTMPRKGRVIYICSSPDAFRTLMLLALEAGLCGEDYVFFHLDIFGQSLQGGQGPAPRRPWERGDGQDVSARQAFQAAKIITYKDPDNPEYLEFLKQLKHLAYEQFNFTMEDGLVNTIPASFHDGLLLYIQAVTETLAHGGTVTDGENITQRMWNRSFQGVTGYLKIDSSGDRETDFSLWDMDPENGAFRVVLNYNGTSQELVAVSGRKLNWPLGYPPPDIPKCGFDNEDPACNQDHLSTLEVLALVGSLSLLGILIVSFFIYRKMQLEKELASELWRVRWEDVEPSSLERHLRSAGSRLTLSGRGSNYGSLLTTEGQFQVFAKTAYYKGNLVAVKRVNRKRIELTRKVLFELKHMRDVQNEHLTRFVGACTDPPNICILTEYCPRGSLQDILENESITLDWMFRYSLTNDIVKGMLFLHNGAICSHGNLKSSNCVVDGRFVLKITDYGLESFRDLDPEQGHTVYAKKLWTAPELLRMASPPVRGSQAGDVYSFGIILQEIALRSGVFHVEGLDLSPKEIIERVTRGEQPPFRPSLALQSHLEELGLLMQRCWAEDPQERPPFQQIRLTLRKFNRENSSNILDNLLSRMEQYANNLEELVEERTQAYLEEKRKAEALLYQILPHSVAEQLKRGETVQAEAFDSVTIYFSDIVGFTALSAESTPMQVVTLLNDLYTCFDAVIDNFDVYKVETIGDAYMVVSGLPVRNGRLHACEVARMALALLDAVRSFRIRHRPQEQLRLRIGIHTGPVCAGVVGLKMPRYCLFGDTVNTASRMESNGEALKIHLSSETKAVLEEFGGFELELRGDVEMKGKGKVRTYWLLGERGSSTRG
T1 sequence (P01160 124-151 partner limits assumed): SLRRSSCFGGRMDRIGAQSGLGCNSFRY
Assay: cGMP production by HTRF in HEK293 cells overexpressing pGC-A, with ANP
Assay type: cell-based
Details: for Max efficacy / EC50: HEK293 cells overexpressing pGC-A; for Max efficacy / Emax: cGMP normalized to maximal amount produced by an EC80 concentration of ANP; for EC50: test compound plus EC20 concentration of ANP, cGMP by HTRF; for Emax: HEK293, HEK293 cells overexpressing pGC-A, read-out: Max efficacy
Excerpt: Assay: Generally, the assay monitors the production of cGMP, the second messenger generated by pGC-A, by Time-Resolved Florescence (HTRF) in HEK293 cells overexpressing the pGC-A. pGC-A suspension cells were stimulated in the presence of the test compound and an EC20 concentration of ANP. The quantity of cGMP was detected by competitive immunoassay using Eu^3+ cryptate-labeled anti-cGMP and d2-labeled cGMP and normalized to maximal amount produced by an EC80 concentration of ANP. Compound EC50 values were determined in the primary assay, in the presence or absence of ANP, to determine mode of action as positive modulators and tested for selectivity in the same assay platform but in HEK cells overexpressing the particulate guanylyl cyclase B receptor (pGC-B), of which CNP is the endogenous ligand.
Assay details: 20 nL of 10 μM test compound in DMSO was added to columns 5-48 of 1536 well white high base screening plates (Corning, New York, NY) cells using 550 ECHO acoustic dispenser (Labcyte, San Jose, CA). Alpha-atrial natriuretic peptide (ANP) (Phoenix Pharmaceutics) was prepared as stock aliquots at 5 μM in PBS with 0.1% BSA. An approximate […] concentration of ANP ([…]) in assay buffer (HBSS containing 5 mM HEPES and 0.05% BSA) was added to columns 3-48 at a volume of 1 μL. Assay buffer only was added to column 1 and assay buffer containing a saturating concentration of ANP (5 nM) was added to column 2. HEK293 cells overexpressing GC-A were resuspended in assay media (OptimMem media containing 2% Heat-inactivated Fetal bovine serum and L-glutamine) at a density of 6×10^5 cells/mL and 2 μL were plated in screening plates (1200 cells/well) in suspension using a Bioraptr 2. Plates were spun at 1000 rpm for 1 min and incubated for 30 min at room temperature. 1.5 μL d2-labeled cGMP followed by 1.5 μL Eu^3+ cryptate-labeled anti-cGMP cGMP detection kit (CiBio; #62GM2PEC) prepared according to manufacturer's protocol were added to all wells using a Bioraptr 2 and TR-FRET signal was detected on an EnVision detector (PerkinElmer). Wells treated with 0.3% DMSO only serve as blank controls (column 1); wells treated with 0.3% DMSO and 5 nM ANP (columns 2) serve as positive controls and wells treated with 0.3% DMSO and […] ANP (columns 3-4) serve as negative controls.

COc1cc(F)c2nc(NC(=O)C3CCCN(CCN(C)C)C3)sc2c1 (centres unmarked) [compound 021]
Max efficacy: 77% | EC50: 6700 nM and 1700 nM

COc1cccc(-c2csc(NC(=O)C3CCCN(CCN(C)C)C3)n2)c1 (centres unmarked) [compound 155]
EC50: > 5000 nM

CN(C)CCN1CC(C(=O)Nc2nc3c(F)cc(F)cc3s2)Cc2ccccc21 (centres unmarked) [compound 057]
EC50: > 5000 nM

CN(C)CCN1CCCC(C(=O)Nc2nc(-c3ccccc3)cs2)C1 (centres unmarked) [compound 144]
EC50: > 5000 nM

O=C(Nc1nc2c(F)cc(F)cc2[nH]1)C1CCCNC1 (centres unmarked) [249b]
Emax: 72%

CN(C)CCC1CCN(c2nc3c(F)cc(F)cc3s2)C(=O)C1 (centres unmarked) [compound 220]
EC50: > 5000 nM

CN(C)CCN1CCCC(C(=O)Nc2nc3c(F)cc(C(F)(F)F)cc3s2)C1 (centres unmarked) [compound 019]
EC50: > 5000 nM

O=C(Nc1nc2c(F)cc(F)cc2s1)C1CCCN(C2CCCC2)C1 (centres unmarked) [compound 099]
Emax: 91% | EC50: 600 nM

Cc1cccc2sc(NC(=O)C3CCCN(CCN(C)C)C3)nc12 (centres unmarked) [compound 005]
EC50: > 10000 nM

CCNC(=O)N1CCCC(C(=O)Nc2nc3c(F)cc(F)cc3s2)C1 (centres unmarked) [compound 277]
EC50: > 5000 nM

CN(C)CCN[C@@H]1CCCCC1C(=O)Nc1nc2c(F)cc(F)cc2s1 (some centres unmarked) [compound 211]
Emax: 101%

CN(C)CCN1CCCC1C(=O)Nc1nc2c(F)cc(F)cc2s1 (centres unmarked) [compound 053]
Emax: 92% | EC50: 800 nM

CN1CCC(N2CCCC(C(=O)Nc3nc4c(Br)cccc4s3)C2)C1 (centres unmarked) [compound 100]
Emax: 84% | EC50: 250 nM

CN(C)CCN1CCCC(C(=O)Nc2nc3c(Cl)c(Cl)ccc3s2)C1 (centres unmarked) [compound 250]
Emax: 60% | EC50: 1400 nM

O=C(Nc1nc2c(F)cc(F)cc2s1)C1CCCN(CCNCCO)C1 (centres unmarked) [compound 240]
Emax: 105% | EC50: 700 nM

CN(C)CCN1CCCC(C(=O)Nc2nc(-c3ccccc3F)cs2)C1 (centres unmarked) [compound 145]
EC50: > 5000 nM

CN(C)CCN1CCCC(C(=O)Nc2nc3c(C(F)(F)F)cccc3s2)C1 (centres unmarked) [compound 002]
EC50: > 10000 nM

COc1cccc(C(=O)Nc2nc3c(F)cc(F)cc3s2)c1 [compound 204]
EC50: > 10000 nM

CN(C)CCN1CCCC(C(=O)Nc2nc(-c3ccc(F)cc3)cs2)C1 (centres unmarked) [compound 147]
EC50: > 5000 nM

O=C(Nc1nc2c(Br)cccc2s1)C1CCCN(C2CCNC2)C1 (centres unmarked) [compound 101]
Emax: 84% | EC50: 500 nM

O=C(Nc1nc2c(F)cc(F)cc2s1)C1CCCN(c2cccnc2)C1 (centres unmarked) [compound 080]
Max efficacy: 135% and 104% | EC50: 7400 nM and 2500 nM

COCCOc1ccc(-c2csc(NC(=O)C3CCCN(CCN(C)C)C3)n2)cc1 (centres unmarked) [compound 160]
EC50: > 5000 nM

O=C(Nc1nc2c(F)cc(F)cc2s1)C1CCCN(c2ccccn2)C1 (centres unmarked) [compound 079]
EC50: > 5000 nM

CN(C)CCN[C@H]1CCC[C@H](C(=O)Nc2nc3c(F)cc(F)cc3s2)C1 [compound 209]
EC50: > 5000 nM

CN(C)CCN1CCCC(C(=O)Nc2nc3c(Cl)cc(F)cc3s2)C1 (centres unmarked) [compound 253]
Emax: 72% | EC50: 50 nM

N[C@@H]1CCC[C@@H](C(=O)Nc2nc3c(F)cc(F)cc3s2)C1 [210T]
Emax: 86% | EC50: 500 nM

COCc1cc(F)c2nc(NC(=O)C3CCCN(CCN(C)C)C3)sc2c1 (centres unmarked) [compound 029]
EC50: > 5000 nM

COc1ccccc1C(=O)Nc1nc2c(F)cc(F)cc2s1 [compound 203]
EC50: > 10000 nM

O=C(Nc1nc2c(F)cc(F)cc2s1)C1CCCN(c2ccncc2F)C1 (centres unmarked) [compound 112]
Emax: 97%

CN(C)CCN1CCCCC1C(=O)Nc1nc2c(F)cc(F)cc2s1 (centres unmarked) [compound 037]
Emax: 96%

CNC(=O)N1CCCC(C(=O)Nc2nc3c(F)cc(F)cc3s2)C1 (centres unmarked) [compound 281]
Emax: 53% | EC50: 1300 nM

COCc1cc(F)c2nc(NC(=O)C3CCCNC3)sc2c1 (centres unmarked) [compound 030]
EC50: > 5000 nM

Cc1cc(F)c2nc(NC(=O)C3CCCN(CCN(C)C)C3)sc2c1 (centres unmarked) [compound 020]
Emax: 101% | EC50: 900 nM

O=C(Nc1nc2c(F)cc(F)cc2s1)C1CCCN(CCn2ccnc2)C1 (centres unmarked) [compound 068]
Emax: 89% | EC50: 900 nM
